Measured values as given in patent US20120258980A1, “Antibacterial Agent for Drug-Resistant Bacteria, Method for Screening for Same, and Use of Same” (priority 2009, published 2012).
Converted amounts (≈) assume the structure as drawn. Where two headings read alike, the source gives them in different places.

Tests used:
[1] = system: VISA clinical isolates of MRSA (VI-MRSA) and of MSSA (VI-MSSA); assay: microbe, parasite or virus in culture; type: cell-based, Staphylococcus aureus
Description: Each of the bacterial strains listed in Table 1-1 was shake-cultured at 37° C. overnight in 4 mL of a medium (Tryptical Soy Broth: TSB, product of Becton Dickinson and Company). FDA209P was used as a control.
After completion of culturing, the resultant culture was suspended in a cation-adjusted Mueller Hinton Broth (CAMHB, product of Becton Dickinson and Company). Then, the obtained bacterial culture was adjusted in absorbance with the CAMHB so that the absorbance at 578 nm of the bacterial culture was adjusted to 0.3 measured by an absorption spectrometer. In addition, the resultant bacterial culture was 500-fold diluted with the CAMHB.
Each of the 500-fold diluted, pre-cultured bacterial cultures was added at 50 μL/well to the CAMHB containing the quinolones and the nybomycins at various concentrations (50 μL/well), followed by statically culturing at 37° C. overnight.
After completion of culturing, the growth of the bacteria was visually determined based on turbidity to measure MIC in each bacterial strain.
Here, the glycopeptides used were VCM and TEIC. The β-lactam used was OXA.

VRSA clinical isolates = conditions: based on NARSA, cited from earlier work
[2] = Staphylococcus aureus, 99/3700-W, VI-MRSA, The United Kingdom
[3] = Staphylococcus aureus, 99/3759-V, VI-MRSA, The United Kingdom
[4] = Staphylococcus aureus, 28160, VI-MRSA, South African Republic
[5] = Staphylococcus aureus, 98141, VI-MRSA, France
[6] = Staphylococcus aureus, A7 (JCSC4842), VI-MRSA, Taiwan
[7] = Staphylococcus aureus, AMC11094, VI-MRSA, Korea
[8] = Staphylococcus aureus, B7 (JCSC4852), VI-MRSA, Taiwan
[9] = Staphylococcus aureus, BR1, VI-MRSA, Brazil
[10] = Staphylococcus aureus, BR2, VI-MRSA, Brazil
[11] = Staphylococcus aureus, BR3, VI-MRSA, Brazil
[12] = Staphylococcus aureus, BR4, VI-MRSA, Brazil
[13] = Staphylococcus aureus, BR5, VI-MRSA, Brazil
[14] = Staphylococcus aureus, HIP06297, VI-MRSA, America
[15] = Staphylococcus aureus, HIP06854, VI-MRSA, America
[16] = Staphylococcus aureus, HIP07920, VI-MRSA, America
[17] = Staphylococcus aureus, HIP07930, VI-MRSA, America
[18] = Staphylococcus aureus, HIP08926, VI-MRSA, America
[19] = Staphylococcus aureus, HIP09143, VI-MRSA, America
[20] = Staphylococcus aureus, HIP09313, VI-MRSA, America
[21] = Staphylococcus aureus, HIP09433, VI-MRSA, America
[22] = Staphylococcus aureus, HIP09662, VI-MRSA, America
[23] = Staphylococcus aureus, HIP09735, VI-MRSA, America
[24] = Staphylococcus aureus, HIP09737, VI-MSSA, America
[25] = Staphylococcus aureus, HIP09740, VI-MRSA, America
[26] = Staphylococcus aureus, HIP10267, VI-MRSA, America
[27] = Staphylococcus aureus, HIP10540, VI-MRSA, America
[28] = Staphylococcus aureus, HIP12864, VI-MRSA, America
[29] = Staphylococcus aureus, HIP13036, VI-MRSA, America
[30] = Staphylococcus aureus, HIP13057, VI-MRSA, America
[31] = Staphylococcus aureus, IL (HIP7737), VI-MRSA, America
[32] = Staphylococcus aureus, JCSC7193, VI-MRSA, Thailand
[33] = Staphylococcus aureus, JCSC7195, VI-MRSA, Thailand
[34] = Staphylococcus aureus, JCSC7203, VI-MRSA, Thailand
[35] = Staphylococcus aureus, LIM2, VI-MRSA, France
[36] = Staphylococcus aureus, LY-1999-01, VI-MSSA, Oman
[37] = Staphylococcus aureus, LY-1999-03, VI-MRSA, Oman
[38] = Staphylococcus aureus, MI (HIP5827), VI-MRSA, America
[39] = Staphylococcus aureus, MRSA / MSSA / NRS 76 / VISA, NRS76, VI-MSSA, America
[40] = Staphylococcus aureus, MRSA / MSSA / NRS 79 / VISA, NRS79, VI-MRSA, America
[41] = Staphylococcus aureus, MRSA / MSSA / NRS 118 / VISA, NRS118, VI-MRSA, America
[42] = Staphylococcus aureus, MRSA / MSSA / NRS 126 / VISA, NRS126, VI-MRSA, America
[43] = Staphylococcus aureus, Mu3, VI-MRSA, Japan
[44] = Staphylococcus aureus, Mu50, VI-MRSA, Japan
[45] = Staphylococcus aureus, NJ (HIP5836), VI-MRSA, America
[46] = Staphylococcus aureus, P1V44, VI-MSSA, Belgium
[47] = Staphylococcus aureus, PC, VI-MRSA, America
[48] = Staphylococcus aureus, SA MER-S6, VI-MSSA, France
[49] = Staphylococcus aureus, SA MER-S12, VI-MSSA, France
[50] = Staphylococcus aureus, SA MER-S20, VI-MSSA, France

Structure (SMILES): Cc1onc(-c2ccccc2)c1C(=O)N[C@@H]1C(=O)N2[C@@H]1SC(C)(C)[C@@H]2C(=O)O [OXA, oxacillin]
- MIC [1, 2]: 512 µg/mL (≈ 1280 µM)
- MIC [1, 3]: 512 µg/mL (≈ 1280 µM)
- MIC [1, 4]: 32 µg/mL (≈ 79.7 µM)
- MIC [1, 5]: > 128 µg/mL
- MIC [1, 6]: 128 µg/mL (≈ 319 µM)
- MIC [1, 7]: 512 µg/mL (≈ 1280 µM)
- MIC [1, 8]: 128 µg/mL (≈ 319 µM)
- MIC [1, 9]: 256 µg/mL (≈ 638 µM)
- MIC [1, 10]: 64 µg/mL (≈ 159 µM)
- MIC [1, 11]: 64 µg/mL (≈ 159 µM)
- MIC [1, 12]: 512 µg/mL (≈ 1280 µM)
- MIC [1, 13]: 512 µg/mL (≈ 1280 µM)
- MIC [1, 14]: 512 µg/mL (≈ 1280 µM)
- MIC [1, 15]: 128 µg/mL (≈ 319 µM)
- MIC [1, 16]: 128 µg/mL (≈ 319 µM)
- MIC [1, 17]: 32 µg/mL (≈ 79.7 µM)
- MIC [1, 18]: 512 µg/mL (≈ 1280 µM)
- MIC [1, 19]: 512 µg/mL (≈ 1280 µM)
- MIC [1, 20]: 512 µg/mL (≈ 1280 µM)
- MIC [1, 21]: 256 µg/mL (≈ 638 µM)
- MIC [1, 22]: 512 µg/mL (≈ 1280 µM)
- MIC [1, 23]: 512 µg/mL (≈ 1280 µM)
- MIC [1, 24]: 1 µg/mL (≈ 2.49 µM)
- MIC [1, 25]: 512 µg/mL (≈ 1280 µM)
- MIC [1, 26]: 4 µg/mL (≈ 9.96 µM)
- MIC [1, 27]: 64 µg/mL (≈ 159 µM)
- MIC [1, 28]: 1020 µg/mL (≈ 2550 µM)
- MIC [1, 29]: 32 µg/mL (≈ 79.7 µM)
- MIC [1, 30]: 4 µg/mL (≈ 9.96 µM)
- MIC [1, 31]: 64 µg/mL (≈ 159 µM)
- MIC [1, 32]: > 128 µg/mL
- MIC [1, 33]: > 128 µg/mL
- MIC [1, 34]: 128 µg/mL (≈ 319 µM)
- MIC [1, 35]: 32 µg/mL (≈ 79.7 µM)
- MIC [1, 36]: 1 µg/mL (≈ 2.49 µM)
- MIC [1, 37]: 1020 µg/mL (≈ 2550 µM)
- MIC [1, 38]: 512 µg/mL (≈ 1280 µM)
- MIC [1, 39]: 1 µg/mL (≈ 2.49 µM)
- MIC [1, 40]: 256 µg/mL (≈ 638 µM)
- MIC [1, 41]: 1020 µg/mL (≈ 2550 µM)
- MIC [1, 42]: 256 µg/mL (≈ 638 µM)
- MIC [1, 43]: 512 µg/mL (≈ 1280 µM)
- MIC [1, 44]: 512 µg/mL (≈ 1280 µM)
- MIC [1, 45]: 64 µg/mL (≈ 159 µM)
- MIC [1, 46]: 2 µg/mL (≈ 4.98 µM)
- MIC [1, 47]: 4 µg/mL (≈ 9.96 µM)
- MIC [1, 48]: 1 µg/mL (≈ 2.49 µM)
- MIC [1, 49]: 1 µg/mL (≈ 2.49 µM)
- MIC [1, 50]: 1 µg/mL (≈ 2.49 µM)
- MIC (VRSA clinical isolates; VRS1, VRSA, Michigan): >16 mg/L
- MIC (VRSA clinical isolates; VRS2, VRSA, Pennsylvania): >16 mg/L
- MIC (VRSA clinical isolates; VRS3, VRSA, New York): >16 mg/L
- MIC (VRSA clinical isolates; VRS4, VRSA, New York): >16 mg/L
- MIC (VRSA clinical isolates; VRS5, VRSA, Michigan): >16 mg/L
- MIC (VRSA clinical isolates; VRS6, VRSA, Michigan): >16 mg/L
- MIC (VRSA clinical isolates; VRS7, VRSA, Michigan): 8 mg/L (≈ 19.9 µM)

Structure (SMILES): C[C@@H]1CN(c2c(F)c(N)c3c(=O)c(C(=O)O)cn(C4CC4)c3c2F)C[C@H](C)N1 [SPFX, sparfloxacin]
- MIC [1, 2]: 16 µg/mL (≈ 40.8 µM)
- MIC [1, 3]: 16 µg/mL (≈ 40.8 µM)
- MIC [1, 4]: 32 µg/mL (≈ 81.5 µM)
- MIC [1, 5]: 16 µg/mL (≈ 40.8 µM)
- MIC [1, 6]: 8 µg/mL (≈ 20.4 µM)
- MIC [1, 7]: 32 µg/mL (≈ 81.5 µM)
- MIC [1, 8]: 8 µg/mL (≈ 20.4 µM)
- MIC [1, 9]: 32 µg/mL (≈ 81.5 µM)
- MIC [1, 10]: 32 µg/mL (≈ 81.5 µM)
- MIC [1, 11]: 32 µg/mL (≈ 81.5 µM)
- MIC [1, 12]: 16 µg/mL (≈ 40.8 µM)
- MIC [1, 13]: 16 µg/mL (≈ 40.8 µM)
- MIC [1, 14]: 8 µg/mL (≈ 20.4 µM)
- MIC [1, 15]: 16 µg/mL (≈ 40.8 µM)
- MIC [1, 16]: 16 µg/mL (≈ 40.8 µM)
- MIC [1, 17]: 16 µg/mL (≈ 40.8 µM)
- MIC [1, 18]: 16 µg/mL (≈ 40.8 µM)
- MIC [1, 19]: 16 µg/mL (≈ 40.8 µM)
- MIC [1, 20]: 8 µg/mL (≈ 20.4 µM)
- MIC [1, 21]: 64 µg/mL (≈ 163 µM)
- MIC [1, 22]: 16 µg/mL (≈ 40.8 µM)
- MIC [1, 23]: 16 µg/mL (≈ 40.8 µM)
- MIC [1, 24]: 16 µg/mL (≈ 40.8 µM)
- MIC [1, 25]: 16 µg/mL (≈ 40.8 µM)
- MIC [1, 26]: 16 µg/mL (≈ 40.8 µM)
- MIC [1, 27]: 16 µg/mL (≈ 40.8 µM)
- MIC [1, 28]: 32 µg/mL (≈ 81.5 µM)
- MIC [1, 29]: 4 µg/mL (≈ 10.2 µM)
- MIC [1, 30]: 8 µg/mL (≈ 20.4 µM)
- MIC [1, 31]: 32 µg/mL (≈ 81.5 µM)
- MIC [1, 32]: 16 µg/mL (≈ 40.8 µM)
- MIC [1, 33]: 32 µg/mL (≈ 81.5 µM)
- MIC [1, 34]: 16 µg/mL (≈ 40.8 µM)
- MIC [1, 35]: 16 µg/mL (≈ 40.8 µM)
- MIC [1, 36]: 2 µg/mL (≈ 5.1 µM)
- MIC [1, 37]: 8 µg/mL (≈ 20.4 µM)
- MIC [1, 38]: 32 µg/mL (≈ 81.5 µM)
- MIC [1, 39]: 32 µg/mL (≈ 81.5 µM)
- MIC [1, 40]: 16 µg/mL (≈ 40.8 µM)
- MIC [1, 41]: 32 µg/mL (≈ 81.5 µM)
- MIC [1, 42]: 8 µg/mL (≈ 20.4 µM)
- MIC [1, 43]: 16 µg/mL (≈ 40.8 µM)
- MIC [1, 44]: 16 µg/mL (≈ 40.8 µM)
- MIC [1, 45]: 32 µg/mL (≈ 81.5 µM)
- MIC [1, 46]: 4 µg/mL (≈ 10.2 µM)
- MIC [1, 47]: 16 µg/mL (≈ 40.8 µM)
- MIC [1, 48]: 0.25 µg/mL (≈ 0.637 µM)
- MIC [1, 49]: 0.25 µg/mL (≈ 0.637 µM)
- MIC [1, 50]: 0.125 µg/mL (≈ 0.319 µM)
